Measured values taken from patent publication US20110262561A1, “Protoilludance Norsesquiterpenoid Esters and Uses Thereof” (NATIONAL RESEARCH INSTITUTE OF CHINESE MEDICINE, priority 2010, published 2011).
Like-named read-outs stand apart in the source and are kept apart here.

Assays:
MCF-7 = experiment: Alamar blue cytotoxicity assay on MCF-7 cancer cells; assay type: cell-based; conditions: for IC50: Homo sapiens, MCF7, alamar blue, 48 hours treatment
Experimental: (§1) The endothelial cells (human endothelial-like cells, Eahy926) and 4 cancer cell lines (MCF-7, H460, HT-29, and CEM) were derived from the American Type Culture Collection (ATCC) and were maintained in DMEM or RPMI medium (Life Technologies) supplemented with 2 mM L-glutamine and 10% heat-inactivated fetal bovine serum (FBS) (Life Technologies) under standard culture conditions. The cell viability and cell number were determined by the Trypan Blue dye-exclusion method.
(§2) The alamar blue (AB) assay (dye purchased from Biosource International, Nivelles, Belgium) was used to estimate cell viability in accordance with procedures previously described by Fatokun et al (Bone (2006) 39, 542-551). Briefly, cells were treated with various concentration of each of the test compounds (e.g., compounds of example 1.1) at 37° C. for 48 hours, and the medium in each well was then aspirated at the end of the treatment, 100 μL of fresh medium containing 10% v/v AB was then added to the control and the treated wells, respectively. Plates were then incubated at 37° C. for 6 hour prior to measuring the absorbance at 570 nm and at 600 nm wavelengths using a spectrophotometric plate reader (DYNEX Technologies, USA). Experimental data were normalized to control values. CH-205-A, K, L, O, and -P were effective on MCF-7 cells; CH-205-A, H, K, L, O, and -P were effective on H460 cells; CH-205-A and -P were effective on HT-29 cells and CH-205-A, H, N, and -O were effective on CEM cells.

H460 = experiment: Alamar blue cytotoxicity assay on H460 cancer cells; assay type: cell-based, human; conditions: for IC50: Homo sapiens, NCI-H460, alamar blue, 48 hours treatment
Experimental: as §1, §2

HT-29 = experiment: Alamar blue cytotoxicity assay on HT-29 cancer cells; assay type: cell-based; conditions: Homo sapiens, HT-29; alamar blue, 48 hours treatment
Experimental: as §1, §2

CEM = experiment: Alamar blue cytotoxicity assay on CEM cancer cells; assay type: cell-based; conditions: for IC50: Homo sapiens, CCRF-CEM, alamar blue, 48 hours treatment
Experimental: as §1, §2

[1] = MTT cell viability of endothelial cells (ECs); assay type: cell-based, human; conditions: human, Eahy926 endothelial-like cells, column head prints none, read-out: Cell viability IC50 (cytotoxicity concentration on ECs)
Experimental: as §1
(§3) Anti-angiogenic effects of CH-205 compounds were estimated by their inhibition on the growth of endothelial cells. The toxicity of CH-205 compounds to endothelial cells was estimated using MTT (3-(4,5-dimethy;thiazol-2-yl)-2,5-diphenyltetrazolium bromide, a tetrazole) assay. MTT assay is a standard colorimetric assay (an assay which measures changes in color) for measuring the activity of enzymes that reduce yellow MTT to formazan, giving a purple color. It is also used to determine cytotoxity of potential medicinal agents and other toxic materials, since those agents would result in cell toxicity and therefore metabolic dysfunction and therefore decreased performance in the assay. The cytotoxity concentrations of the CH-205 compounds measured in MTT test are all over 20 μM (Table 2), however, their effects on angiogenesis inhibition are in nM range, indicating the safety of these compounds (Table 3).

[2] = test system: endothelial cells (human endothelial-like cells, Eahy926); experiment: MTT cell viability of endothelial cells (ECs); assay type: cell-based
Experimental: as §1, §3

endothelial cells (ECs) = experiment: In vitro antiangiogenesis on ECs (inhibition of endothelial cell growth); assay type: cell-based; conditions: Homo sapiens, ECs, read-out: In vitro antiangiogenesis IC50
Experimental: as §1, §3

[3] = test system: H460 human lung cancer tumor xenograft; conditions: for tumor volume after sacrifice / Tumor growth inhibition ratio (TGI): CH-205-O study, 10 times; for tumor volume after sacrifice: solvent control 3.984±0.484
Experimental: The established, transplantable, 5×10^6/200 μL H460 tumor cells were prepared in RPMI medium. The 200 μL of cell suspension was injected subcutaneously into right flank area of each mouse. The mice were randomized into vehicle control and drug treatment groups of four-six animals each when xenografts were palpable with a tumor size of 40 mm^3. Adminitration of the lead compounds or vehicle began on day 15 when the median tumor size was ranged from 75 to 80 mm^3. Tumor-bearing animals were randomized (five per group) prior to treatment. The candidate test drugs were intraperitoneal (IP) administered into with optimal dosage once every other day (48 hr apart) for 7 or 10 times. […] Solvent vehicle and cisplatin (5 mg/kg) were used to administrate, respectively, as io negative and positive controls. Two days after last administration of tested compounds, the animals were sacrificed. The tumor dimensions were measured every other day using a linear caliper and tumor volume is calculated using the equation V (mm^3)=a×b^2/2, where a is the largest diameter and b is the smallest diameter. Body weights are also recorded once weekly. Tumor is growth inhibition ratio (TGI) is calculated using the equation TGI=(1−(the mean treated tumor mass/mean control tumor mass))*100%.

| SMILES | IC50 (MCF-7) | IC50 (H460) | IC50 (HT-29) | IC50 (CEM) | IC50 [1] | Cell viability (% of control) 1 μM [2] | Cell viability (% of control) 10 μM [2] | Cell viability (% of control) 50 μM [2] | Cell viability (% of control) 100 μM [2] | Cell viability (% of control) 250 μM [2] | Cell viability (% of control) 500 μM [2] | IC50 (endothelial cells (ECs)) | further results |
| --- | --- | --- | --- | --- | --- | --- | --- | --- | --- | --- | --- | --- | --- |
| Cc1c(Cl)c(O)cc(O)c1C(=O)OCC1=C[C@@H]2CC(C)(C)C[C@@H]2[C@@]2(C)C[C@@H](O)[C@@]12O [CH-205-H, (((2R,2aS,4aS,7aS,7bR)-2,2a,4a,5,6,7,7a,7b-octahydro-2,2a-dihydroxy-6,6,7 b-trimethyl-1H-cyclobuta[e]inden-3-yl)methyl 3-chloro-4,6-dihydroxy-2-methylbenzoate)] | 56.5 µM | 5.5 µM | 7.1 µM | 5.4 µM | 29.3 µM | 99.7 % of control | 128.7 % of control | 34.9 % of control | 12.7 % of control | 8.4 % of control | 7.0 % of control | 0.0013 µM | melting point: 148 to 149 °C |
| COc1cc(O)c(C(=O)O[C@@H]2C[C@]3(C)C4CC(C)(C)CC4C=C(C=O)[C@]23O)c(C)c1Cl (stereo partly drawn) [CH-205-O, (2R,2aS,7bR)-3-formyl-2,2a,4a,5,6,7,7a,7b-octahydro-2a-hydroxy-6,6,7b-trimethyl-1 H-cyclobuta[e]inden-2-yl 3-chloro-6-hydroxy-4-methoxy-2-methylbenzoate] | 1.7 µM | 4.5 µM | 42.1 µM | 5.1 µM | 13.2 µM | 98.5 % of control | 43.6 % of control | 7.0 % of control | 6.5 % of control | 7.1 % of control | 7.0 % of control | 0.0021 µM | effective on MCF-7 cells (MCF-7): effective; effective on H460 cells (H460): effective; effective on CEM cells (CEM): effective; tumor volume after sacrifice ([3]; 4 mg/kg IP every other day): 1.475±0.155 cm^3; Tumor growth inhibition ratio (TGI) ([3]; 4 mg/kg IP): 60.87%; tumor volume after sacrifice ([3]; 40 mg/kg IP every other day): 1.470±0.177 cm^3; Tumor growth inhibition ratio (TGI) ([3]; 40 mg/kg IP): 70.7%; tumor volume after sacrifice ([3]; 80 mg/kg IP every other day): 1.645±0.206 cm^3; Tumor growth inhibition ratio (TGI) ([3]; 80 mg/kg IP): 62.9%; tumor regression ([3]; CH-205-O study, 4, 40 and 80 mg/kg each other day, after 10 injections): highly significant tumor regression; effect on body weight ([3]; mouse, in vivo): no different effect on body weight |
